“Also recorded” adds a separate entry of the source.
Key:
ARPE-19 cells [1] = test: Connexin43 immunohistochemistry (gap junction plaque localisation); type: cell-based, Human; settings: ARPE-19, HG + cytokines, 72 h
Experimental: (§1) Cell Culture—Human adult retinal pigment epithelial cells (ARPE-19; American Type Culture Collection, USA) were cultured in Dulbecco's Modified Eagle Medium Nutrient Mixture F-12 (DMEM-F12; Thermofisher Scientific Inc., USA) supplemented with 10% foetal bovine serum (FBS; Invitrogen, USA) and a 1× antibiotics and antimycotics mixture (AA, 100× stock) at 37° C. in a humidified 5% CO2 incubator. Cells were grown in T75 flasks and the medium was changed twice per week until confluent. […]
(§2) Image analysis and quantification of collagen IV immunolabelling—Images were taken on an Olympus FV1000 confocal laser scanning microscope (Olympus, Japan). […] Both ZO-1 and connexin43 expression were qualitatively assessed for changes in localisation. Collagen IV labelling was quantified from four images taken per well and the experiment was repeated three times. […] The total area covered by collagen IV was then quantified using the ‘measure’ feature in ImageJ. Collagen IV results were expressed as a percentage of untreated (basal) cells.

ARPE-19 cells [2] = test: ZO-1 immunohistochemistry (localisation); type: cell-based, Human; settings: ARPE-19, HG + cytokines, Peptide5 25 μM, 72 h
Experimental: as §1, §2

ARPE-19 cells [3] = test: Trans-epithelial electrical resistance (TEER) of ARPE-19 monolayer after HG and cytokine challenge; type: cell-based, Human; settings: ARPE-19, HG 32.5 mM + TNF-α and IL-1β 10 ng/mL, Peptide5 25 μM
Experimental: Cell Culture—Human adult retinal pigment epithelial cells (ARPE-19; American Type Culture Collection, USA) were cultured in Dulbecco's Modified Eagle Medium Nutrient Mixture F-12 (DMEM-F12; Thermofisher Scientific Inc., USA) supplemented with 10% foetal bovine serum (FBS; Invitrogen, USA) and a 1× antibiotics and antimycotics mixture (AA, 100× stock) at 37° C. in a humidified 5% CO2 incubator. Cells were grown in T75 flasks and the medium was changed twice per week until confluent.
HG and/or cytokine challenge—At passage 6-12, cells were plated at 2.5×10^5 cells/mL in 8-well chamber slides for immunohistochemical studies, 6-well plates for TEER and FITC-dextran studies or 96-well plates for the […] dehydrogenase (LDH) and ATP release assay until confluent after which the culture medium was changed to treatments in serum-free DMEM-F12 containing 1×AA for 24 h. […]
Measurement of Trans-Epithelial Electrical Resistance (TEER)—Cells were seeded at 2.5×10^5 cells/mL on polyester membranes in Transwell® 6-well plates (Corning Incorporated, USA) in growth medium and incubated for 72 h. […] Net TEER values were calculated by subtracting the resistance in Transwell inserts without cells from the experimental values obtained from chamber containing cells. […] The sample size was three readings per well, repeated three times in separate experiments.

ARPE-19 cells [4] = test: Lactate dehydrogenase (LDH) release assay; type: cell-based, Human; settings: ARPE-19, HG + cytokines, 72 h
Experimental: as §1
Lactate Dehydrogenase (LDH) assay—Cells were seeded at 2.5×10^5 cells/mL in 96-well plates until confluent after which the culture medium was changed to treatments in serum-free DMEM-F12 containing 1×AA for 72 h. […] The amount of LDH released was assessed using an LDH assay kit as per manufacturer instructions (Sigma-Aldrich, USA). […] A Synergy 2 multi-mode plate reader (BioTek Instruments Inc., USA) was used to measure the absorbance of the formazan dye in the medium at 490 nm (OD490). LDH release (%) was calculated relative to basal conditions.

connexin43 hemichannel = connexin43 hemichannel (human, UniProt P17302 2-382); test: cell-based or functional assay
[5] = Peptide5 25 μM plus exogenous ATP 100 nM

Chain of connexin43 hemichannel (P17302 2-382): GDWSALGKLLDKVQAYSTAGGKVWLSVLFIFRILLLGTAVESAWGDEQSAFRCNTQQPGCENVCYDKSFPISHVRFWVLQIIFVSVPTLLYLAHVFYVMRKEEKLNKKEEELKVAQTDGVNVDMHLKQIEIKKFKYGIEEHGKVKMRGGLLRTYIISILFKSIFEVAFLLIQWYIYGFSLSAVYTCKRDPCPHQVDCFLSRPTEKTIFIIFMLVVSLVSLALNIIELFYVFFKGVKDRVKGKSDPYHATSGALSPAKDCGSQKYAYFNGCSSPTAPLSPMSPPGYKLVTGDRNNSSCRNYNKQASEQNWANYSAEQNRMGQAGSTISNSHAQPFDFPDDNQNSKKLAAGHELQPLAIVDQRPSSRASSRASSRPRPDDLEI

Molecule	Connexin43 localisation with exogenously added ATP (qualitative) (ARPE-19 cells [1]; [5])	Connexin43 localisation at the cell membrane (qualitative) (ARPE-19 cells [1]; Peptide5 25 μM)	ZO-1 localisation at the cell membrane (qualitative) (ARPE-19 cells [2])	TEER relative to basal conditions (ARPE-19 cells [3]; 48 h)	TEER relative to basal conditions (ARPE-19 cells [3]; 72 h)	LDH release with exogenously added ATP (ARPE-19 cells [4]; [5])	LDH release relative to basal conditions (ARPE-19 cells [4]; Peptide5 25 μM)	FITC-dextran permeability at 72 h (% relative to blank wells), ARPE-19 monolayer with HG and cytokines, Peptide5 at 25 uM (connexin43 hemichannel)
H-Val-Asp-Cys-Phe-Leu-Ser-Arg-Pro-Thr-Glu-Lys-Thr-OH (H-VDCFLSRPTEKT-OH) [Peptide5]	change in connexin43 gap junction localisation; also recorded: again a loss of connexin43 at cell membranes	protected against the redistribution of connexin43 localisation away from the cell membrane and into the cytoplasm; also recorded: connexin43 is kept in its normal pattern; also recorded: maintained connexin43 primarily in gap junction plaques, similar to basal conditions	maintained ZO-1 localisation to cell membranes similar to basal conditions	no statistically significant difference between Peptide5-treated and basal cells; also recorded: prevented a decrease in TEER at both time-points	no statistically significant difference between Peptide5-treated and basal cells; also recorded: prevented a decrease in TEER at both time-points	once-again increased LDH release; also recorded: LDH levels were increased to injury levels	LDH release remains low; also recorded: prevented LDH release relative to basal conditions; also recorded: reduced by Peptide5 treatment	–
H-VDCFLSRPTEKT-OH [Peptide5 (H-Val-Asp-Cys-Phe-Leu-Ser-Arg-Pro-Thr-Glu-Lys-Thr-OH)]	–	–	–	–	–	–	–	33.2%
